# Tests used:
# [1] = biological target: T1, human recombinant enzyme (full length top1) (Homo sapiens, UniProt P11387); assay: Topoisomerase-I-dependent DNA rupture assay (DNA damage persistence); assay type: biochemical; settings: 0.6 M NaCl added after 30 min incubation with 10 μM of the drug
# T1 construct: the human recombinant enzyme (full length top1)
# T1 sequence (P11387 1-765): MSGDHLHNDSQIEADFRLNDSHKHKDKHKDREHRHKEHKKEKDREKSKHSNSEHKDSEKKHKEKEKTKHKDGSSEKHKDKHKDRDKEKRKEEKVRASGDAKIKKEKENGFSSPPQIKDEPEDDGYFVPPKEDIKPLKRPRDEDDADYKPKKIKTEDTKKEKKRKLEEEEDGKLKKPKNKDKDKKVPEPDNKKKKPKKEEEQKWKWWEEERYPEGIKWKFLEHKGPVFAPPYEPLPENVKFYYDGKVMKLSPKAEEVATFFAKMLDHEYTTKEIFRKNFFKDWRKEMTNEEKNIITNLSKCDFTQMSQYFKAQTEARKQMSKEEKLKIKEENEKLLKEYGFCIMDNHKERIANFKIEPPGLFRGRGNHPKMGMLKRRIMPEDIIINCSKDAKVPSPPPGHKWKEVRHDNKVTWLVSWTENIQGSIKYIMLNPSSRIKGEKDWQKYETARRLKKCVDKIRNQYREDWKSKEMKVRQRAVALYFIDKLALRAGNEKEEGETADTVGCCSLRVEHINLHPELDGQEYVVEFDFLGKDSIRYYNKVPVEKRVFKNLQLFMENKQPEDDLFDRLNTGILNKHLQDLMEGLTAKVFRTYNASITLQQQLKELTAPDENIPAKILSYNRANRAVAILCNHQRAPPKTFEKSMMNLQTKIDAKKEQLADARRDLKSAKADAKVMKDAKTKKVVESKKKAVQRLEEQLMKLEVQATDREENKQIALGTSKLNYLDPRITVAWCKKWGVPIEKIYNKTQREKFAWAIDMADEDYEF
# [2] = tested on: NCI-H460 cell line (NSCL cancer); assay: Cell growth inhibition assay (cytotoxicity); assay type: cell-based, human; settings: counted 72 hours after exposure, 1 or 72 hr drug exposure; for NCI-H460 IC50 (μg/mL) Cell count: H460 human large cell lung tumor cells; for IC50: Homo sapiens, NCI-H460, read-out: NCI-H460 IC50 (μg/mL) Cell count, H460 human large cell lung tumor cells
# Method: The compounds of the invention were tested in a cytotoxicity assay on a wide spectrum of tumour cells. By way of example, the cytotoxicity data on the NCI-H460 cell line (NSCL cancer) concerning two compounds of formula (I) are reported, using camptothecin and the drugs Topotecan and SN-38 as references:
# H460 Cells from human large cell lung tumor were cultured in RPMI-1640 medium containing 10% foetal calf serum. Cell sensitivity was determined by cell growth inhibition assay after 1 or 72 hr drug exposure. The cells in logarithmic growth were collected and seeded in duplicate in 6-wells plates. […] IC50 is defined as the concentration inhibiting by 50% cell growth compared with untreated controls growth.
# lung tumor model = assay: In vivo comparison on a lung tumor model; settings: dose 50 mg/kg/inj.
# Description: Compound thio-SN38 (IDN6156) was transformed into thio-CPT11 (thio-Irinotecan) according to procedures for the conversion of SN38 to CPT11 (Irinotecan) reported in the literature. The resulting compound thio-irinotecan was compared in vivo with close non-sulforated analogue in clinical use (CPT11) on a lung tumor model highly sensitive to the standard references.
Compound,Persistence of DNA damage (%) ([1]; time 0 min),Persistence of DNA damage (%) ([1]; time 1 min),Persistence of DNA damage (%) ([1]; time 5 min),Persistence of DNA damage (%) ([1]; time 10 min),NCI-H460 IC50 (μg/mL) Cell count [2] [µg/mL],IC50 [2] [µg/mL],Max BWL % (lung tumor model) [%],TWI % (lung tumor model) [%],Tox/Tot (lung tumor model),LCK (0.5 g) (lung tumor model; 0.5 g)
"CCc1c2c(nc3ccc(O)cc13)-c1cc3c(c(=O)n1C2)COC(=O)[C@]3(O)CC [SN38, 10-hydroxy-7-ethylcamptothecin, reference compound]",100,60,33,28,,,,,,
CC[C@@]1(O)C(=O)OCc2c1cc1n(c2=S)C(N=[N+]=[N-])c2cc3ccccc3nc2-1 (some centres unmarked) [IDN 6092],100,35,18,15,0.3 ± 0.07,,,,,
CC[C@@]1(O)C(=O)OCc2c1cc1n(c2=O)Cc2cc3ccccc3nc2-1 [Camptothecin],100,58,23,20,,,,,,
CC[C@@]1(O)C(=O)OCc2c1cc1n(c2=S)C(N=[N+]=[N-])c2cc3ccccc3nc2-1 (some centres unmarked) [IDN 6093],,,,,0.72 ± 0.2,,,,,
"CC[C@@]1(O)C(=O)OCc2c1cc1n(c2=S)Cc2cc3c(CN(C)C)c(O)ccc3nc2-1 [IDN 6180, Thio-Topotecan]",,,,,,0.115 ± 0.021,,,,
"CC[C@@]1(O)C(=O)OCc2c1cc1n(c2=O)Cc2cc3c(CN(C)C)c(O)ccc3nc2-1 [Topotecan, reference compound]",100,65,20,10,,,,,,
"CC[C@@]1(O)C(=O)OCc2c1cc1n(c2=S)Cc2cc3ccccc3nc2-1 [IDN 6070, Thio-camptothecin]",100,33,10,10,,0.05 ± 0.021,,,,
CCc1c2c(nc3ccc(OC(=O)N4CCC(N5CCCCC5)CC4)cc13)-c1cc3c(c(=O)n1C2)COC(=O)[C@]3(O)CC [CPT 11],,,,,,,15,91,0/5,1.8
"CCc1c2c(nc3ccc(O)cc13)-c1cc3c(c(=S)n1C2)COC(=O)[C@]3(O)CC [IDN 6156, ThioSN-38]",100,100,80,60,,0.0095 ± 0.0007,,,,
"CC[C@@]1(O)C(=O)OCc2c1cc1n(c2=S)Cc2cc3cc(O)ccc3nc2-1 [IDN 6181, 10-hydroxy-Thio-Camptothecin]",100,88,50,22,,0.035 ± 0.011,,,,

# From patent publication US8217053B2, “Camptothecin derivatives with antitumor activity” (Indena S.p.A., priority 2006, dated 2012)
